This assay addresses T1, human NHE-1 (Homo sapiens, UniProt P19634).
T1 construct: expressed in transfected cells; host or cells: LAP-1 cells (parental line without endogenous NHE activity), stably transfected, G418 selection
The assay is described as follows: FLIPR assay for NHE-1 inhibition by measurement of the recovery in pHi in transfected cell lines. Format: cell-based. The following applies: transfected LAP-1 cell line expressing human NHE-1, BCECF fluorescence, read-out: NHE1 inhibition IC50. The procedure:
The NHE-1 inhibition IC50 [nM] was determined as follows:
FLIPR assay for determining NHE-1 inhibitors by measurement of the recovery in pHi in transfected cell lines which express human NHE-1
The assay is carried out in an FLIPR (fluorometric imaging plate reader) with black-walled 96-well microtiter plates with clear bases. […] [The growth medium for the transfected cells (Iscove+10% fetal calf serum) additionally contains G418 as selection antibiotic in order to ensure the presence of the transfected sequences.]
The actual assay starts with the removal of the growth medium and addition of 100 μl of loading buffer per well (5 μM BCECF-AM [2′,7′-bis(carboxyethyl)-5-(and -6-)carboxyfluorescein, acetoxymethyl ester] in 20 mM NH4Cl, 115 mM choline chloride, 1 mM MgCl2, 1 mM CaCl2, 5 mM KCl, 20 mM HEPES, 5 mM glucose; pH 7.4 [adjusted with KOH]). The cells are then incubated at 37° C. for 20 minutes. This incubation leads to loading of the cells with the fluorescent dye whose fluorescence intensity depends on pHi, and with NH4Cl which makes the cells slightly alkaline.
[The nonfluorescent dye precursor BCECF-AM is, as ester, membrane-permeable. The actual dye BCECF is not membrane-permeable but is liberated inside cells by esterases.]
After this incubation for 20 minutes, the loading buffer which contains NH4Cl and free BCECF-AM is removed by washing three times in a cell washer (Tecan Columbus) with in each case 400 μl of washing buffer (133.8 mM choline chloride, 4.7 mM KCl, 1.25 mM MgCl2, 1.25 mM CaCl2, 0.97 mM K2HPO4, 0.23 mM KH2PO4, 5 mM HEPES, 5 mM glucose; pH 7.4 [adjusted with KOH]). The residual volume remaining in the wells is 90 μl (50-125 μl possible). This washing step removes the free BCECF-AM and results, as a consequence of the removal of the external NH4^+ ions, in intracellular acidification (˜pHi 6.3-6.4).
Since the equilibrium of intracellular NH4^+ with NH3 and H^+ is disturbed by the removal of the extracellular NH4^+ and by the subsequent instantaneous passage of the NH3 through the cell membrane, the washing process results in H^+ remaining inside the cells, which is the cause of the intracellular acidification. This may eventually lead to cell death if it persists long enough.
It is important at this point that the washing buffer is sodium-free (<1 mM) because extracellular sodium ions would lead to an instantaneous recovery of the pHi through the activity of the cloned NHE isoforms.
It is likewise important for all the buffers used (loading buffer, washing buffer, recovery buffer) not to contain any HCO3^− ions, because the presence of bicarbonate would lead to activation of interfering bicarbonate-dependent pHi regulatory systems present in the parental LAP-1 cell line.
The microtiter plates with the acidified cells are then (up to 20 minutes after the acidification) transferred to the FLIPR. In the FLIPR, the intracellular fluorescent dye is excited by light with a wavelength of 488 nm generated by an argon laser, and the measured parameters (laser power, illumination time and aperture of the CCD camera incorporated in the FLIPR) are chosen so that the average fluorescence signal per well is between 30 000 and 35 000 relative fluorescence units.
The actual measurement in the FLIPR starts with a photograph being taken by the CCD camera every two seconds under software control. After ten seconds, the recovery of the intracellular pH is initiated by adding 90 μl of recovery buffer (133.8 mM NaCl, 4.7 mM KCl, 1.25 mM MgCl2, 1.25 mM CaCl2, 0.97 mM K2HPO4, 0.23 mM KH2PO4, 10 mM HEPES, 5 mM glucose; pH 7.4 [adjusted with NaOH]) by means of the 96-well pipettor incorporated in the FLIPR.
Positive control wells (100% NHE activity) are those to which pure recovery buffer is added, while negative controls (0% NHE activity) receive washing buffer. Recovery buffer with twice the concentration of test substance is added to all the other wells. Measurement in the FLIPR terminates after 60 measurements (two minutes). […]

For six molecules, IC50 results are on record in patent publication US8404893B2, “Pentafluorosulfanylbenzoylguanidines, processes for their preparation, their use as medicaments or diagnostic aids, and medicaments comprising them” (Sanofi-Aventis Deutschland GmbH, priority 2002, dated 2013).

Structures can show the parent of a compound that is named as a salt.

T1 sequence (P19634 whole entry): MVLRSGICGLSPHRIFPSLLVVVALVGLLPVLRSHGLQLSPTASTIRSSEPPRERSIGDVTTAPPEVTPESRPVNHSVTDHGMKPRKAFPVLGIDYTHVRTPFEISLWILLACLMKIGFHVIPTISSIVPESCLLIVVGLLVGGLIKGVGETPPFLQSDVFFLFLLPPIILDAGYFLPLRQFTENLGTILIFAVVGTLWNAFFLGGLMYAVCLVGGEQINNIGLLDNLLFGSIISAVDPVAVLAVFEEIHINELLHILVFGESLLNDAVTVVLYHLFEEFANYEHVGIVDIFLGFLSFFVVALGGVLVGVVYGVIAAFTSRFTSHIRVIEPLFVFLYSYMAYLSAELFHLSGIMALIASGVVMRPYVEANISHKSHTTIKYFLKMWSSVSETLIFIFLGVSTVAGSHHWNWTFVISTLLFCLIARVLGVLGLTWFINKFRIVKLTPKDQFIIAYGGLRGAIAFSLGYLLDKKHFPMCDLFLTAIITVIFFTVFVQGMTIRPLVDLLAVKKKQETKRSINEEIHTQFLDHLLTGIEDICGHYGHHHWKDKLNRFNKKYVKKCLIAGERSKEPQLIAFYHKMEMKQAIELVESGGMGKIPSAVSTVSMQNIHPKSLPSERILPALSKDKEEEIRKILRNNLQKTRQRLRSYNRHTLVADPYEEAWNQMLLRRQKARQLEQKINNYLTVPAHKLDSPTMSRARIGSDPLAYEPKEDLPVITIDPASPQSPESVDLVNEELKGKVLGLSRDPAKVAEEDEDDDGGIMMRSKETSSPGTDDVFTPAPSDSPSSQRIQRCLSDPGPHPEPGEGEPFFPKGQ

Regarding `Cc1ccc(S(F)(F)(F)(F)F)cc1C(=O)N=C(N)N` [Example 6, N-(2-Methyl-5-pentafluorosulfanylbenzoyl)guanidine], the IC50 – broadly, the concentration needed to halve the response being measured – worked out at 20.3 nM. The result for `NC(N)=NC(=O)c1ccc(S(F)(F)(F)(F)F)cc1` [Example 2, 4-Pentafluorosulfanylbenzoylguanidine, Hydrochloride] reads 131 nM. Consider `N=C(N)NC(=O)c1ccc(S(F)(F)(F)(F)F)cc1Oc1ccc(F)cc1` [Example 5, N-[2-(4-Fluorophenoxy)-4-pentafluorosulfanylbenzoyl]guanidine], for which the IC50 amounted to 12000 nM. In the case of `Cc1cc(S(F)(F)(F)(F)F)ccc1C(=O)N=C(N)N` [Example 3, 4-Pentafluorosulfanyl-2-methylbenzoylguanidine], the 50% inhibitory concentration (IC50) is 14.5 nM. For `NC(N)=NC(=O)c1cccc(S(F)(F)(F)(F)F)c1` [Example 1, 3-Pentafluorosulfanylbenzoylguanidine, Hydrochloride] the value was 237 nM; for `N=C(N)NC(=O)c1ccc(S(F)(F)(F)(F)F)cc1Cl` [Example 4, N-[2-Chloro-4-pentafluorosulfanylbenzoyl]guanidine], 220 nM.
